From US7462716B2, “Statin derivatives” (Nicox S.A., priority 2003, dated 2008)
Where two headings read alike, the source gives them in different places. Marks after values point to notes of the source that are not given here.

How the values were obtained:
Tissue factor (TF) = assay: Tissue factor expression in LPS-stimulated blood mononuclear cells; type: cell-based; conditions: 50 μM; human MNC, LPS 1 μg/ml, 3 h; mean ± SEM
Experimental: Tissue factor (TF) is a major regulator of homeostasis and thrombosis. […] MNC were obtained from fresh blood by density gradient (Ficoll-Hypaque) centrifugation and resuspended in serum-free RPMI medium at the concentration of 2−3×10^6/ml. […] After incubation for 3 h at 37° C., TF expression in MNC was assessed by 1) functional assay (Semeraro et al., 1983. Immunology; 50: 529-35) on intact cells; 2) immunological assay (Imubind, Instrumentation Laboratory, Milan) on Triton X-100 cell extracts; 3) RT-PCR (Rossiello et al. Thromb Haemost 2000; 84:453-59).

[1] = tested on: isolated rabbit thoracic aorta preparations; assay: Vascular tone: relaxation of noradrenaline-precontracted isolated aortic rings; conditions: Oryctolagus cuniculus; rabbit thoracic aorta rings contracted with noradrenaline 1 μM, functional endothelium; ± sem; read-out: IC50 (concentration giving 50% reversal of NA contraction)
Experimental: The ability of statin nitroderivatives to induce vasorelaxation in comparison to native statins, was tested in vitro in isolated rabbit thoracic aorta preparations (Wanstall J. C. et al., Br. J. Pharmacol., 134:463-472, 2001). Male New Zealand rabbits were anaesthetized with thiopental-Na (50 mg/kg, iv), sacrificed by exsanguinations and then the thorax was opened and the aorta dissected. Single ring preparations (4 mm in length) of thoracic aorta were set up in physiological salt solution (PSS) at 37° C. in small organ chambers (5 ml). The composition of PSS was (mM): NaCl 130, NaHCO3 14.9, KH2PO4 1.2, MgSO4 1.2, HEPES 10, CaCl2, ascorbic acid […] and glucose 1.1 (95% O2/5% CO2; pH 7.4). Each ring was mounted under 2 g passive tension in 5 ml organ bath. Isometric tension was recorded with a Grass transducer (Grass FT03) attached to a BIOPAC MP150 System. Preparations were allowed to equilibrate for 1 h, then contracted submaximally with noradrenaline (NA, 1 μM) and, when the contraction was stable, acetylcholine (ACh, 10 μM) was added. A relaxant response to ACh indicated the presence of a functional endothelium. When a stable precontraction was reached, a cumulative concentration-response curve to either of the vasorelaxant agents was obtained in the presence of a functional endothelium. Time intervals between different concentrations were based on the time needed to reach a full response. Moreover, the effect of the soluble guanylyl cyclase inhibitor ODQ (1-H-(1,2,4)-oxadiazol(4,3-a)quinoxalin-1-one) on the dilator responses elicited by the compounds was examined preincubating the aortic rings with ODQ (10 μM) for 20 min. Responses to vasorelaxing agents were measured from the plateau of NA contraction. The IC50 (concentration giving 50% reversal of NA contraction) was interpolated from the plots of relaxant-response vs log molar concentration of tested compound.
During the experimental period, the plateau obtained with NA was stable without significant spontaneous loss of contraction in the aortic rings.
As shown in the following Table 1, the nitroderivatives of the invention were able to induce relaxation in a concentration-dependent manner. Furthermore, in experiments performed in presence of ODQ (10 μM), the vasorelaxant responses to all the tested drugs were inhibited.
IC50 is the concentration which inhibits 50% of the response. Effects of Nitrostatin Derivatives on Inflammatory Pathways In Vitro

human platelets = assay: U46619-induced platelet aggregation in vitro; type: cell-based
Experimental: Platelets are prominent components of the thrombi.
Compounds were incubated at 37° C. for 2 min before adding U46619, an aggregating agent, TxA2 analog. Aggregation was followed for 5 min and the maximal amplitude (cm) was measured. DMSO (0.05%) was used as vehicle. Compounds were tested at concentrations ranging from 50 to 200 μM.

COX2 = assay: Western blot of COX2 protein in LPS-stimulated RAW264.7 cells; type: cell-based
Experimental: (§1) The experiments were performed using RAW264.7 monocyte macrophage cell line. […] At the end of the incubation, the cells were harvested in lysis buffer and the protein content was measured. Western Blot of inducible iNOS and COX2 proteins (representatives of an ongoing inflammatory process) was performed. The obtained results reported in Table 2 are expressed as % reduction of optical density of each treatment vs. LPS-treated samples.

leukocyte adhesion = assay: Ex vivo leukocyte adhesion to thrombin-stimulated arterial segments of dosed ApoE knockout mice; type: in vivo; conditions: ApoE K/O mice, pravastatin 40 mg/kg po or equimolar dose daily for 5 days
Experimental: The interaction between leukocytes and the vascular endothelium is a crucial inflammatory step in the atherogenic process.
Leukocytes were isolated from spleen, centrifuged, RBCs lysed with water. Arterial segments prepared—aortic & thoracic regions opened longitudinally and pinned out luminal side up. Radiolabelled leukocytes (^51Cr-leukocytes) are incubated with thrombin-stimulated (10 UmL−1 for 10 min.) segments for 30 min. Segments are washed with medium and adhesion measured by gamma counter.

iNOS = assay: Western blot of iNOS protein in LPS-stimulated RAW264.7 cells; type: cell-based
Experimental: as §1

[2] = tested on: U46619-induced pulmonary thromboembolism; assay: Protection from U46619-induced pulmonary thromboembolism; type: in vivo, CD-1 mice; conditions: mice, U46619 0.2 mg/kg iv
Experimental: 1 (equimolar doses) or vehicle. 1-3 hrs later the animals were injected into a tail vein with U46619 (0.2 mg/kg), a stable TxA2 analog. As previously described (Momi et al., Eur. J. Pharmacol. 397:177-185, 2000), this dose of the agonist caused 80 to 90% mortality within 3 min. in the control group. In each experimental session at least six animals per treatment group were tested; control groups were run at the beginning and at the end of every experimental session. Protection against agonist-induced thromboembolism was expressed as (1-Tdrug/Tsaline)×100, were Tdrug is the mortality rate in drug-treated mice, and Tsaline is the number of non surviving control animals which received […] only.
The results were expressed as percentage of protection from U46619-induced pulmonary thromboembolism as compared to the control group.

murine hindlimb ischemia = assay: Murine hindlimb ischemia model (capillary density, clinical outcome); type: in vivo, CD1 male mice
Experimental: Angiogenesis is a primary response to local tissue hypoxia and is likely involved in the restoration of blood flow in ischemic diseases such as acute coronary syndromes and occlusive peripheral vascular disease. […] After 3 days, mice were anaesthetized and left hindlimb ischemia was induced by electro-coagulation of the upper part of femoral artery. Treatment was continued for the following 2 weeks after surgery. Systolic blood pressure was measured by tail cuff technique at 7 and 14 days. The clinical outcome at 14 days was determined by counting the number of necrotic or lost nails in the ischemic foot as well as the number of auto-amputation events. At 14 days from ischemia induction, hindlimbs of anaesthetized mice were perfusion-fixed, both adductors were coded and histologically processed. Capillary and arteriolar densities (ncap/mm^2 and nart/mm^2) were determined.

[3] = 100 μM, RAW264.7, LPS 1 μg/ml 8 h
[4] = mice, 14 days after ischemia, in chow pravastatin 40 mg/kg or nitroderivative 48 mg/kg
[5] = 10 μM, RAW264.7, LPS 1 μg/ml 16 h, negative = increase vs LPS

CC[C@H](C)C(=O)O[C@H]1C[C@H](O)C=C2C=C[C@H](C)[C@H](CCC(O)C[C@H](O)CC(=O)OCCCCO[N+](=O)[O-])[C@H]21 (relative stereo) [Compound of EX. 1, [1S-[1α(βS*,δS*),2α,6α,8β-(R*),8aα]]-1,2,6,7,8,8a-hexahydro-β,δ,6-trihydroxy-2-methyl-8-(2-methyl-1-oxobutoxy)-1-naphthaleneheptanoic acid 4-(nitrooxy)butyl ester] was tested, and the “TF in LPS-stimulated MNC: Activity” value (Tissue factor (TF)) was 16 ± 4.9 AU/10^6 cells, the “TF in LPS-stimulated MNC: Antigen” value (Tissue factor (TF)) was 0.65 ± 0.11 ng/mg protein and the IC50 [1] was 2.4 ± 0.6 µM. For the same compound, the IC50 (human platelets; Platelet, human gel filtered platelets, read-out: Platelet aggregation (GFP) IC50) was 101 ± 10 µM, the IC50 (human platelets; human platelet rich plasma, read-out: Platelet aggregation (PRP) IC50) was 74 ± 7 µM and the “COX2 (% reduction vs LPS)” value (COX2; [3]) was 74.9 ± 4.4%. The “Leukocyte adhesion (%) (thoracic aorta)” value (leukocyte adhesion) was 9.3 ± 3 %, the “iNOS (% reduction vs LPS)” value (iNOS; [3]) was 55.2 ± 11.8% and the “Antithrombotic activity (%) 1-h before challenge” value ([2]; 12 mg/kg ip) was 30* %. The “Antithrombotic activity (%) 3-h before challenge” value ([2]; 12 mg/kg ip) was 40* %, the “Antithrombotic activity (%) 1-h before challenge” value ([2]; 24 mg/kg ip) was 40*+ % and the “Antithrombotic activity (%) 3-h before challenge” value ([2]; 24 mg/kg ip) was 55*+ %. The “clinical outcome in mice with hindlimb ischemia” value (murine hindlimb ischemia; 14 days, necrotic or lost nails, auto-amputation events) was “ameliorates clinical outcome”, the “N capillaries/mm^2 in contralateral adductor muscle” value (murine hindlimb ischemia; [4]) was 660 ± 40 N capillaries/mm^2 and the “N capillaries/mm^2 in ischemic adductor muscle” value (murine hindlimb ischemia; [4]) was 1116 ± 53^§§**^++ N capillaries/mm^2.

In the case of CC(C)n1c(/C=C/[C@@H](O)C[C@@H](O)CC(=O)OCCCCO[N+](=O)[O-])c(-c2ccc(F)cc2)c2ccccc21 (relative stereo) [Compound of EX. 3, [R*,S*-(E)]-7-[3-(4-fluorophenyl)-1-(1-methylethyl)-1H-indol-2-yl]-3,5-dihydroxy-6-heptanoic acid 4-(nitrooxy)butyl ester], the IC50 [1] is reported as 13.4 ± 3.5 µM, the “COX2 (% reduction vs LPS)” value (COX2; [5]) is reported as 53.9 ± 6.1% and the “iNOS (% reduction vs LPS)” value (iNOS; [5]) is reported as 44.8 ± 11.9%.

With CC(C)n1c(/C=C/[C@@H](O)C[C@@H](O)CC(=O)OCc2ccc(CO[N+](=O)[O-])cc2)c(-c2ccc(F)cc2)c2ccccc21 (relative stereo) [Compound of EX. 4, [R*,S*-(E)]-7-[3-(4-fluorophenyl)-1-(1-methylethyl)-1H-indol-2-yl]-3,5-dihydroxy-6-heptanoic acid 4-(nitrooxymethyl)benzyl ester] the IC50 [1] was 8.7 ± 3.3 µM, the “COX2 (% reduction vs LPS)” value (COX2; [5]) was 19.4 ± 6.5% and the “iNOS (% reduction vs LPS)” value (iNOS; [5]) was 22.4 ± 9.6%.

With CC(C)c1c(C(=O)Nc2ccccc2)c(-c2ccccc2)c(-c2ccc(F)cc2)n1CC[C@@H](O)C[C@@H](O)CC(=O)O [Atorvastatin, atorvastatin, reference compound] the “iNOS (% reduction vs LPS)” value (iNOS; [5]) was 20 ± 14%.

With CC(C)c1c(C(=O)Nc2ccccc2)c(-c2ccccc2)c(-c2ccc(F)cc2)n1CC[C@@H](O)C[C@@H](O)CC(=O)OCCCCO[N+](=O)[O-] [Compound of EX. 7, (βR,δR)-2(4-fluorophenyl)-β,δ-dihydroxy-5-(1-methylethyl)-3-phenyl-4-[(phenylamino)carbon-yl]-1H-pyrrole-1-heptanoic acid 4-(nitrooxy)butyl ester] the “iNOS (% reduction vs LPS)” value (iNOS; [5]) was 45 ± 9%.

With CC(C)n1c(/C=C/C(O)CC(O)CC(=O)O)c(-c2ccc(F)cc2)c2ccccc21 (stereo not shown) [Fluvastatin, fluvastatin, reference compound] the IC50 [1] was greater than 30 µM, the “COX2 (% reduction vs LPS)” value (COX2; [5]) was −2.8 ± 3.7% and the “iNOS (% reduction vs LPS)” value (iNOS; [5]) was −14.8 ± 5.9%.

For CC[C@H](C)C(=O)O[C@H]1C[C@H](O)C=C2C=C[C@H](C)[C@H](CC[C@@H](O)C[C@@H](O)CC(=O)O)[C@H]21 [Pravastatin, pravastatin, reference compound], the “TF in LPS-stimulated MNC: Activity” value (Tissue factor (TF)) was 189 ± 37.6 AU/10^6 cells, the “TF in LPS-stimulated MNC: Antigen” value (Tissue factor (TF)) was 4.4 ± 1.3 ng/mg protein and the IC50 [1] was greater than 30 µM. The “COX2 (% reduction vs LPS)” value (COX2; [3]) was 26.9 ± 7.9%, the “Leukocyte adhesion (%) (thoracic aorta)” value (leukocyte adhesion) was 23.0 ± 6% and the “iNOS (% reduction vs LPS)” value (iNOS; [3]) was 4.7 ± 3.6%. The “Antithrombotic activity (%) 1-h before challenge” value ([2]; 10 mg/kg ip) was 15%, the “Antithrombotic activity (%) 3-h before challenge” value ([2]; 10 mg/kg ip) was 10% and the “Antithrombotic activity (%) 1-h before challenge” value ([2]; 20 mg/kg ip) was 25%. The “Antithrombotic activity (%) 3-h before challenge” value ([2]; 20 mg/kg ip) was 20% and the “N capillaries/mm^2 in contralateral adductor muscle” value (murine hindlimb ischemia; [4]) was 736 ± 40 N capillaries/mm^2.
